ChEMBL document CHEMBL1142859, “Synthesis and characterization of a platinum(II) complex tethered to a ligand of the peripheral benzodiazepine receptor” (J Med Chem, 2007)

Target: Translocator protein (Rattus norvegicus, UniProt P16257)
Assay: Displacement of [3H]PK 11195 from PBR in Sprague-Dawley rat cerebral cortex
Format: tissue-based

Translocator protein, sequence (P16257 whole entry, looked up): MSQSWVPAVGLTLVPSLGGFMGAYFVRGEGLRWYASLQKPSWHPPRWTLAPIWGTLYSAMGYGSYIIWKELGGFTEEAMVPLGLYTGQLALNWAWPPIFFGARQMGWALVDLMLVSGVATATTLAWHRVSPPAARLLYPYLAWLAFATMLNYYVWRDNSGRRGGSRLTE

## CCCN(CCC)C(=O)Cc1c(-c2nccs2)nc2c(Cl)cc(Cl)cn12
  IC50: 2.81 nM
